From patent US20100009852A1, “Plant growth regulator” (priority 2008, published 2010)
Where “and” joins values, the source holds several entries; their conditions need not be identical. Equal entries are not always repeated.

Key:
[1] = system: maize (Zea mays—variety Oldham); test: Root growth promotion: maize germination in a soil free test system; assay type: in vivo; conditions: for Fresh weight of harvested roots, Mean of 4 replicates / Fresh weight of harvested roots, single replicate: 13 days after sowing, Blank WP mean 317; for Fresh weight of harvested roots, single replicate: roots of 10 seeds per container
Description: 8 cm round filter papers were placed in 9.5 cm square clear plastic tissue culture containers (ICN Biomedicals, Inc). The paper in each of 4 containers were wetted with 2 ml of tap water containing 2500, 1250 or 625 ppm of cyprosulfamide provided as a 20% wettable powder formulation (WP). 4 further containers were wetted with tap water containing blank WP formulation (i.e. all components except cyprosulfamide). Into each Petri dish 10 seeds of maize (Zea mays—variety Oldham) were evenly spread and the lids put in place. The Petri dishes were placed in glasshouse set to 24° C.±2° C. day and 17° C.±2° C. night. High-pressure mercury lamps (400 W) were used to augment daylight during cloudy conditions. As required, small volumes of water were added to the Petri dishes as necessary to keep the filter paper moist. After 13 days the roots from all seeds per container were harvested by cutting as close to the base as possible. The fresh weight of roots was measured immediately.

[2] = system: maize varieties (Cecilia and Abraxas); test: Shoot growth regulation: glasshouse pot trial, plant height of 2 maize varieties; assay type: in vivo; conditions: for Mean plant height per pot, Mean of 8 replicates / Mean plant height per pot, single replicate: 25 days after sowing
Description: Three cyprosulfamide treatment methods (1 to 3) were used in a trial designed to investigate effects on shoot development. Treatment method 1 was a seed treatment. For this, fifty seeds each of two maize varieties ([…] and Abraxas) were weighed and placed into each of 50 ml glass screw cap bottles. To one of these bottles sufficient wettable powder formulation of cyprosulfamide (20% formulation) was added to provide 1 g of cyprosulfamide per 1000 g of seed. To the second bottle the same amount of a blank formulation (same components but lacking cyprosulfamide) was added. To each bottle 10 ml of deionised water was added the caps fitted. The bottles were then placed on a shaker for 20 minutes so that the seeds were evenly coated with the formulation. For methods 2 and 3, 240 peat pots (7 cm diameter) were filled to within 3 cm of the top with steam sterilised sandy-loam soil (20% sand, 57% silt, 23% clay, pH 6.8 and 1.4% organic matter). In addition, 120 Petri dishes (10 cm diameter) were filled (1 cm depth) with the same soil. The 20% wettable powder formulation of cyprosulfamide was dispersed in de-ionised water to produce the required concentration (ppm). 120 pots (Treatment 2) and the all 120 Petri dishes (Treatment 3) were placed on “feed-belt” of a track-sprayer. The spray solution of cyprosulfamide was placed into the spray vessel and applied to the target pots/dishes at a spray volume of 300 l/ha via a flat fan nozzle. This provided a dose rate equivalent to 1000 g of cyprosulfamide per hectare soil surface. For treatment method 1, five treated maize seed were sown onto 8 replicate untreated pots and covered with untreated soil. For treatment method 2, five untreated seeds were sown onto 8 replicate treated pots and covered with untreated soil. For treatment method 3, five untreated seeds were sown onto 8 replicate untreated pots and covered using the treated soil from the Petri dishes. Control (Treatment 4) had also untreated seeds on untreated soil. The placement of cyprosulfamide as a result of these treatment methods is shown in FIG. 1 All the pots were watered and placed in a glasshouse set to 24° C.±2° C. day and 17° C.±2° C. night. The relative humidity was normally above 60%. High-pressure mercury lamps (400 W) were used to augment daylight during cloudy conditions. Pots were watered as required. 25 days after sowing the height of each plant was measured from soil surface to tip of tallest leaf which was held up against a ruler.

[3] = variety Abraxas, treatment 1 = seed treatment, 1 g per 1000 g seed, untreated mean 36.0
[4] = variety Abraxas, treatment 2 = soil below seed, 1000 g per hectare, untreated mean 36.0
[5] = variety Abraxas, treatment 3 = soil above seed, 1000 g per hectare, untreated mean 36.0
[6] = variety Cecilia, treatment 1 = seed treatment, 1 g per 1000 g seed, untreated mean 55.3
[7] = variety Cecilia, treatment 2 = soil below seed, 1000 g per hectare, untreated mean 55.3
[8] = variety Cecilia, treatment 3 = soil above seed, 1000 g per hectare, untreated mean 55.3

In the case of COc1ccccc1C(=O)NS(=O)(=O)c1ccc(C(=O)NC2CC2)cc1 [cyprosulfamide], the “Fresh weight of harvested roots, Mean of 4 replicates” value (shortened to “Fresh weight … of 4 replicates”) ([1]; WP + 625 ppm a.i.) was 620 mg, the “Fresh weight of harvested roots, single replicate” value (from here on “Fresh weight … single replicate”) ([1]; WP + 625 ppm a.i.) was 587 mg and 579 mg and 547 mg and 767 mg and the “Fresh weight … of 4 replicates” value ([1]; WP + 1250 ppm a.i.) was 838 mg. The “Fresh weight … single replicate” value ([1]; WP + 1250 ppm a.i.) was 700 mg and 717 mg and 846 mg and 1087 mg, the “Fresh weight … of 4 replicates” value ([1]; WP + 2500 ppm a.i.) was 778 mg and the “Fresh weight … single replicate” value ([1]; WP + 2500 ppm a.i.) was 918 mg and 1211 mg and 634 mg and 350 mg. For the same compound, the “root development of germinating maize seed” value ([1]; in the presence of cyprosulfamide (625-2500 ppm) versus blank WP) was “significantly enhanced”, the “effect on plant height (statistical analysis)” value ([2]; all treatments (1 to 3) versus untreated, in Cecilia and Abraxas) was “significantly reduced plant height” and the “Mean plant height per pot, Mean of 8 replicates” value (“Mean plant height per pot, Mean” below) [2, 3] was 26.3 cm. The “Mean plant height per pot, single replicate” value [2, 3] was 28.2 cm and 20.8 cm and 31.6 cm and 22.6 cm and 25.2 cm and 22.2 cm and 28.8 cm and 30.6 cm, the “Mean plant height per pot, Mean” value [2, 4] was 33.4 cm and the “Mean plant height per pot, single replicate” value [2, 4] was 34.2 cm and 34.5 cm and 34.4 cm and 33.4 cm and 32.2 cm and 33.6 cm and 30.5 cm and 34.6 cm. For the same compound, the “Mean plant height per pot, Mean” value [2, 5] was 30.4 cm, the “Mean plant height per pot, single replicate” value [2, 5] was 25.2 cm and 26.6 cm and 29.6 cm and 32.2 cm (2×) and 31.4 cm and 32.8 cm and 33.0 cm and the “Mean plant height per pot, Mean” value [2, 6] was 41.2 cm. For the same compound, the “Mean plant height per pot, single replicate” value [2, 6] was 34.3 cm and 40.7 cm and 50.0 cm and 38.3 cm and 39.3 cm and 44.0 cm and 41.0 cm and 41.7 cm, the “Mean plant height per pot, Mean” value [2, 7] was 44.4 cm and the “Mean plant height per pot, single replicate” value [2, 7] was 46.0 cm (2×) and 50.0 cm and 48.2 cm and 42.8 cm and 41.7 cm and 40.6 cm and 40.3 cm. For the same compound, the “Mean plant height per pot, Mean” value [2, 8] was 47.8 cm and the “Mean plant height per pot, single replicate” value [2, 8] was 43.0 cm and 54.0 cm and 47.6 cm and 47.0 cm and 55.5 cm and 58.0 cm and 36.8 cm and 40.8 cm.
